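Compound exposure: 48 hours, 5 concentrations, 96-well plates. GI50 marks 50% less growth. Definition used: TGI = concentration required for complete inhibition of growth.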
Experiments:
Test in all cases: growth of human tumour cells (NCI), 48 h
OVCAR-4 ovarian = tested on: OVCAR-4 ovarian
SN12C renal = tested on: SN12C renal
NCI/ADR-RES ovarian = tested on: NCI/ADR-RES ovarian
U251 CNS = tested on: U251 CNS
NCI-H23 lung = tested on: NCI-H23 lung
ACHN renal = tested on: ACHN renal
RXF 393 renal = tested on: RXF 393 renal
SK-OV-3 ovarian = tested on: SK-OV-3 ovarian
DU-145 prostate = tested on: DU-145 prostate
MALME-3M melanoma = tested on: MALME-3M melanoma

SMILES	GI50 (OVCAR-4 ovarian)	TGI (OVCAR-4 ovarian)	GI50 (SN12C renal)	TGI (SN12C renal)	GI50 (NCI/ADR-RES ovarian)	TGI (NCI/ADR-RES ovarian)	GI50 (U251 CNS)	TGI (U251 CNS)	GI50 (NCI-H23 lung)	TGI (NCI-H23 lung)	GI50 (ACHN renal)	TGI (ACHN renal)	GI50 (RXF 393 renal)	TGI (RXF 393 renal)	GI50 (SK-OV-3 ovarian)	TGI (SK-OV-3 ovarian)	GI50 (DU-145 prostate)	TGI (DU-145 prostate)	GI50 (MALME-3M melanoma)	TGI (MALME-3M melanoma)
COc1cc(N2C(=O)[C@H](O)C2c2ccc(SC)cc2)cc(OC)c1OC (stereo not given in full)	0.0275 µM	> 100 µM	0.0482 µM	> 100 µM	0.0166 µM	> 100 µM	< 0.01 µM	> 100 µM	0.0191 µM	> 100 µM	< 0.01 µM	60.5 µM	< 0.01 µM	> 100 µM	0.0142 µM	> 100 µM	0.0238 µM	> 100 µM	21.6 µM	74 µM
COC1C=COC2(C)Oc3c(C)c(O)c4c(c3C2=O)/C(=N/C2CCC(O)OC2C)C=C(NC(=O)/C(C)=C\C(=O)C2CC2C(O)C(C)C(O)C(C)C(OC(C)=O)C1C)C4=O (stereo not given)		10.6 µM		3.24 µM		50.4 µM		8.3 µM		3.62 µM		6.68 µM		3.45 µM		20.1 µM		7.13 µM		3.36 µM
O=C(/C=C/c1ccccc1)CCN1CCOCC1		42.5 µM		35.9 µM		55.5 µM		31.7 µM		31.8 µM		28.6 µM		26.1 µM		51.6 µM		40.4 µM		36.4 µM
N#Cc1c(N2CCOCC2)nc(=S)[nH]c1-c1ccco1	16.9 µM	> 100 µM	4.46 µM	> 100 µM	15.6 µM	> 100 µM	20.2 µM	> 100 µM	12.1 µM	> 100 µM	5.75 µM	> 100 µM	12.9 µM	> 100 µM	2.72 µM	14.7 µM	10.2 µM	> 100 µM	2.18 µM	8.18 µM
c1cnn2ncc(-c3ccnc(NCCCN4CCOCC4)n3)c2c1	11 µM	> 25 µM	8.2 µM	> 25 µM	6.78 µM	> 25 µM	7.18 µM	> 25 µM	7.87 µM	> 25 µM	6.08 µM	> 25 µM	3.34 µM	7.78 µM	8.34 µM	> 25 µM	7.72 µM	> 25 µM	7.63 µM	24.5 µM
COc1ccc(-c2cc(-c3ccc(C)cc3)nc3nc(=S)[nH]c(N)c23)cc1	74.3 µM	> 100 µM	20.5 µM	48.6 µM	32.2 µM	> 100 µM	15.2 µM	29.3 µM	21.9 µM	60.2 µM	18.8 µM	62.5 µM	20.5 µM	44.5 µM	40.4 µM	> 100 µM	26.3 µM	75.5 µM	26.7 µM	43.3 µM
CC1=C2[C@@H](CC1)[C@]1(C)O[C@@](c3ccccc3)(C[C@H]1OC(=O)CO)[C@H]2OC(=O)/C=C/c1ccccc1	15.2 µM	43 µM	1.14 µM	30.2 µM	0.348 µM	16 µM	13.9 µM	28.1 µM	17.1 µM	44.9 µM	0.0446 µM	5.61 µM	0.0388 µM	1.31 µM	19 µM	44.8 µM	16.6 µM	34.5 µM	20.1 µM	42.8 µM
COc1ccccc1-c1cc(=O)c2cc(C)cnc2[nH]1		> 100 µM		> 100 µM		47.1 µM	27.8 µM	> 100 µM		> 100 µM		> 100 µM		> 100 µM		> 100 µM		> 100 µM		> 100 µM
O=[N+]([O-])c1ccc(C=Cc2ccccc2)cc1.[C-]#[O+].[C-]#[O+].[C-]#[O+].[Cr]	8.93 µM	> 100 µM	10.1 µM	> 100 µM	13.4 µM	> 100 µM	36.7 µM	> 100 µM	20.9 µM	> 100 µM	18.5 µM	> 100 µM	11.8 µM	> 100 µM	22.9 µM	> 100 µM	24.3 µM	> 100 µM	> 100 µM	> 100 µM
OCC1OC(n2cnc3c(N/N=C\c4ccccn4)ncnc32)C(O)C1O (stereo not given)	0.115 µM		0.107 µM	7.48 µM	0.185 µM	11.7 µM	0.4 µM	> 100 µM	0.476 µM	> 100 µM	0.2 µM	1.78 µM	0.275 µM	2.45 µM	0.239 µM	2.97 µM	0.0389 µM	10.1 µM	0.404 µM	6.19 µM
CCOc1ccccc1C(=O)N1CCN(c2cc(Cl)cc(Cl)c2)CC1	0.266 µM	18.5 µM	0.0493 µM	14.7 µM	0.0231 µM	5.64 µM	0.0407 µM	14.3 µM	0.0491 µM	9.46 µM	0.051 µM	14.6 µM	0.0175 µM	1.06 µM	0.258 µM	9.14 µM	0.0468 µM	14 µM	0.624 µM	22.9 µM
O=C1/C(=C/c2ccccc2[N+](=O)[O-])Cc2ccccc21	2.95 µM	29.4 µM	2.54 µM	9.17 µM	3.35 µM	40.6 µM	2.89 µM	10.6 µM	2.2 µM	7 µM	1.87 µM	4.87 µM	1.45 µM	2.99 µM	6.86 µM	38.4 µM	1.86 µM	3.51 µM	2.28 µM	5.71 µM
OCc1ccc(N2CCCC2c2ccccc2)cc1Cl (stereo not given)	1.39 µM	14.2 µM	8.22 µM	21.7 µM	3.54 µM	17.7 µM	2.35 µM	13.3 µM	5.51 µM	30 µM	11.7 µM	26.9 µM	3.2 µM	15.2 µM	2.89 µM	13 µM	12.3 µM	30.8 µM	9.73 µM	28.2 µM
CN1CCN(C(=O)c2cc(-c3ccc4ncnc(N5CCc6cc(F)c(Cl)cc65)c4c3)cnc2N)CC1	0.3 µM	4.22 µM	0.15 µM	10.5 µM	0.723 µM	10.2 µM	0.348 µM	5.71 µM	0.31 µM	5.66 µM	0.27 µM	5.78 µM	0.0922 µM	0.48 µM	0.382 µM	2.21 µM	0.214 µM	11.3 µM	0.123 µM	0.843 µM
OCC12C3C4C5C3C1C5C42 (stereo not given)		> 100 µM		> 100 µM		> 100 µM		> 100 µM		> 100 µM		> 100 µM		> 100 µM		> 100 µM		> 100 µM		> 100 µM
CC(C)NCCCn1c(Sc2cc3c(cc2I)OCO3)nc2c(N)ncnc21	> 33.3 µM	> 100 µM	0.174 µM	> 100 µM	3.66 µM	> 100 µM	0.128 µM	> 100 µM	0.0897 µM	> 100 µM	0.297 µM	> 100 µM	0.753 µM	48.8 µM	0.0451 µM	> 100 µM	0.0473 µM	> 100 µM	0.124 µM	2.12 µM
COc1cc2c(cc1OCCCn1c(-c3ccccn3)nc3ccccc31)N=C[C@@H]1CCCN1C2=O	3.39 µM	> 42.6 µM	3.05 µM	15.1 µM	2.79 µM	7.31 µM	2.37 µM	11.4 µM	1.08 µM	3.77 µM	2.23 µM	6.28 µM	0.571 µM	3.64 µM	4.23 µM	19.6 µM	2.72 µM	6.72 µM	5.32 µM	11 µM
O=C(Nc1ccc(OCc2nnc(-c3ccc(Cl)cc3)o2)c(F)c1)Nc1ccc(Cl)c(C(F)(F)F)c1	2.02 µM	7.59 µM	2.02 µM	7.91 µM	2.59 µM	11.5 µM	1.88 µM	5.03 µM	2.36 µM	7.38 µM	2.11 µM	8.52 µM	2.6 µM	7.76 µM	3.3 µM	12.5 µM	2.48 µM	6.78 µM	2.4 µM	6.33 µM
NC(CSC1c2ccccc2-c2ccccc21)C(=O)O (stereo not given)		> 100 µM		> 100 µM		> 100 µM		> 100 µM		> 100 µM		> 100 µM		> 100 µM		> 100 µM		> 100 µM		> 100 µM
O=C1NC(=O)C(N2C(=O)c3ccccc3C2=O)CC1O (stereo not given)	> 100 µM	> 100 µM	> 100 µM	> 100 µM	> 100 µM	> 100 µM	> 100 µM	> 100 µM	> 100 µM	> 100 µM	> 100 µM	> 100 µM	> 100 µM	> 100 µM	> 100 µM	> 100 µM	> 100 µM	> 100 µM	> 100 µM	> 100 µM

Reference: PubChem BioAssay (NCI)
